According to article PMC8801796 (Reproductive Toxicology (Elmsford, N.y.), 2022):

Tests used:
rats = details: doses up to 1000 mg/kg/day; cited from earlier work
[1] = tested on: Wistar Han (Crl:WI[Han]) rats; experiment: Rat embryo-fetal development
[2] = Rat embryo-fetal development; details: female, Wistar Han, rat, in vivo, oral
[3] = tested on: Wistar Han (Crl:WI[Han]) rats; experiment: Fertility and early embryonic development study in rats; format: in vivo, rat; details: for Corpora lutea / Implantation sites / Live embryos / Resorptions: GD 14 uterine examination; for Number of pregnant females: of 20

Q: Which results are given for `CC(C)(C)[C@H](NC(=O)C(F)(F)F)C(=O)N1C[C@H]2[C@@H]([C@H]1C(=O)N[C@H](C#N)C[C@@H]1CCNC1=O)C2(C)C` [NMV, nirmatrelvir]?
A: Adverse findings in 2-week general toxicology study (rats): lack of adverse findings; Corpora lutea ([1]; 100 mg/kg): 11.4 ± 1.1; Fetal weight (g)/Litter ([1]; 100 mg/kg): 5.3 ± 0.3 g; Implantation sites ([1]; 100 mg/kg): 9.9 ± 1.5; Maternal Food Consumption (GD 6−21) ([1]; 100 mg/kg): 313.4 ± 32.0 g/day; Post-implantation loss ([1]; 100 mg/kg): 6.5 ± 15.4%; Pre-implantation loss ([1]; 100 mg/kg): 12.8 ± 11.1%; Corpora lutea ([1]; 300 mg/kg): 11.5 ± 1.5; Fetal weight (g)/Litter ([1]; 300 mg/kg): 5.5 ± 0.3 g; Implantation sites ([1]; 300 mg/kg): 9.3 ± 2.4; Maternal Food Consumption (GD 6−21) ([1]; 300 mg/kg): 322.3 ± 20.8 g/day; Post-implantation loss ([1]; 300 mg/kg): 6.8 ± 14.9%; Pre-implantation loss ([1]; 300 mg/kg): 18.7 ± 19.9%; Corpora lutea ([1]; 1000 mg/kg): 11.5 ± 1.5; Fetal weight (g)/Litter ([1]; 1000 mg/kg): 5.4 ± 0.3 g; Implantation sites ([1]; 1000 mg/kg): 9.7 ± 2.6; Maternal Food Consumption (GD 6−21) ([1]; 1000 mg/kg): 309.5 ± 43.1 g/day; Post-implantation loss ([1]; 1000 mg/kg): 9.7 ± 14.1%; Pre-implantation loss ([1]; 1000 mg/kg): 15.3 ± 21.0%; Effects on embryo-fetal viability ([1]; all dose groups): no NMV-related effects on embryo-fetal viability; Maternal toxicity ([1]; any dose up to 1000 mg/kg/day): no NMV-related maternal toxicity; Effects on fetal external, visceral, or skeletal morphological development ([1]; up to 1000 mg/kg/day): no effects on fetal external, visceral, or skeletal morphological development; NOAEL [2]: 1000 mg/kg/day; Female Food Consumption, Gestation Day 0−14 ([3]; 60 mg/kg/day): 19.2 ± 2.1 g/day; Female Food Consumption, Premating Day 1−14 ([3]; 60 mg/kg/day): 15.3 ± 1.2 g/day; Female Terminal Body Weight ([3]; 60 mg/kg/day): 277.0 ± 24.1 g; Male Food Consumption, Mating Day 15−19 ([3]; 60 mg/kg/day): 19.3 ± 2.8 g/day; Male Food Consumption, Premating Day 1−14 ([3]; 60 mg/kg/day): 22.0 ± 1.1 g/day; Male Terminal Body Weight ([3]; 60 mg/kg/day): 409.9 ± 22.7 g; Mean no. of estrous cycles ([3]; 60 mg/kg/day): 2.7 ± 0.5; Postimplantation loss ([3]; 60 mg/kg/day): 5.3 ± 5.7%; Precoital interval ([3]; 60 mg/kg/day): 3.6 ± 3.5 days; Preimplantation loss ([3]; 60 mg/kg/day): 9.7 ± 8.1%; Corpora lutea ([3]; 60 mg/kg/day): 13.8 ± 1.3; Implantation sites ([3]; 60 mg/kg/day): 12.5 ± 1.4; Live embryos ([3]; 60 mg/kg/day): 11.8 ± 1.4; Resorptions ([3]; 60 mg/kg/day): 0.7 ± 0.7; Number of pregnant females ([3]; 60 mg/kg/day): 19; Female Food Consumption, Gestation Day 0−14 ([3]; 200 mg/kg/day): 19.0 ± 2.2 g/day; Female Food Consumption, Premating Day 1−14 ([3]; 200 mg/kg/day): 14.8 ± 0.8 g/day; Female Terminal Body Weight ([3]; 200 mg/kg/day): 272.0 ± 13.3 g; Male Food Consumption, Mating Day 15−19 ([3]; 200 mg/kg/day): 18.0 ± 3.1 g/day; Male Food Consumption, Premating Day 1−14 ([3]; 200 mg/kg/day): 23.0 ± 1.2 g/day; Male Terminal Body Weight ([3]; 200 mg/kg/day): 411.6 ± 22.2 g; Mean no. of estrous cycles ([3]; 200 mg/kg/day): 2.7 ± 0.5; Postimplantation loss ([3]; 200 mg/kg/day): 9.5 ± 12.8%; Precoital interval ([3]; 200 mg/kg/day): 3.0 ± 2.2 days; Preimplantation loss ([3]; 200 mg/kg/day): 11.0 ± 18.4%; Corpora lutea ([3]; 200 mg/kg/day): 14.1 ± 1.7; Implantation sites ([3]; 200 mg/kg/day): 12.6 ± 3.0; Live embryos ([3]; 200 mg/kg/day): 11.5 ± 3.2; Resorptions ([3]; 200 mg/kg/day): 1.1 ± 1.6; Number of pregnant females ([3]; 200 mg/kg/day): 18; Female Food Consumption, Gestation Day 0−14 ([3]; 1000 mg/kg/day): 19.0 ± 1.6 g/day; Female Food Consumption, Premating Day 1−14 ([3]; 1000 mg/kg/day): 14.7 ± 1.0 g/day; Female Terminal Body Weight ([3]; 1000 mg/kg/day): 277.8 ± 14.1 g; Male Food Consumption, Mating Day 15−19 ([3]; 1000 mg/kg/day): 18.3 ± 3.2 g/day; Male Terminal Body Weight ([3]; 1000 mg/kg/day): 408.9 ± 19.7 g; Mean no. of estrous cycles ([3]; 1000 mg/kg/day): 2.6 ± 0.5; Postimplantation loss ([3]; 1000 mg/kg/day): 10.6 ± 11.9%; Precoital interval ([3]; 1000 mg/kg/day): 3.2 ± 2.9 days; Preimplantation loss ([3]; 1000 mg/kg/day): 16.9 ± 22.8%
